pIC50: −log10 of the molar value. ≈ marks a conversion by molar mass, not a printed value.
Key:
Shewanella oneidensis = test: Antibacterial activity against Shewanella oneidensis MR-1; type: functional
[1] = test system: Bacillus amyloliquefaciens; test: Antibacterial activity against Bacillus amyloliquefaciens; type: functional
Staphylococcus aureus = test: Antibacterial activity against Staphylococcus aureus; type: functional
[2] = target: Heat shock protein HSP 90-alpha (Homo sapiens, UniProt P07900); test: Inhibition of HSP90alpha (unknown origin); conditions: for pIC50: read-out: IC50
A549 = test: Cytotoxicity against human A549 cells assessed as reduction in cell viability; type: functional, cell-based
K562 = test: Cytotoxicity against human K562 cells assessed as reduction in cell viability; type: functional, cell-based; conditions: for pIC50: Homo sapiens, K562, read-out: IC50
MCF7 [3] = test: cells; conditions: Homo sapiens
HL-60 [4] = test: cells; conditions: Homo sapiens
Description: (§1) Cytotoxicity against human HL60 cells assessed as reduction in cell viability

MCF7 [5] = test system: MCF7
HL-60 [6] = test system: HL-60
Description: as §1

[7] = Cytotoxicity against African green monkey Vero cells assessed as reduction in cell viability; type: cell-based; conditions: chlorocebus sabaeus
Human alphaherpesvirus 1 = test: Antiviral activity against HSV-1 by plaque reduction assay; type: functional, organism-based

SMILES | MIC (Shewanella oneidensis) [µg/mL] | MIC [1] [µg/mL] | MIC (Staphylococcus aureus) [µg/mL] | pIC50 [2] | pIC50 (A549) | pIC50 (K562) | pIC50 (MCF7 [3]) | pIC50 (HL-60 [4]) | IC50 (K562; k562) | IC50 (MCF7 [5]) | IC50 (HL-60 [6]) | IC50 [2] | CC50 [7] [µM] | MNTC ([7]; read-out: MNCC) [µM] | pIC50 (Human alphaherpesvirus 1)
CO[C@H]1/C=C\C=C(/C)C(=O)NC2=CC(=O)C(O)=C(C[C@@H](C)C[C@H](OC)[C@H](O)[C@@H](C)/C=C(\C)[C@@H]1OC(N)=O)C2=O | > 200 | > 200 | > 200 | 5.39 | 5.11 | 5.32 | 5.00 | 4.44 | – | – | – | – | – | – | –
CO[C@H]1C[C@H](C)Cc2cc(cc(O)c2O)NC(=O)/C(C)=C/CC[C@H](OC)[C@@H](OC(N)=O)/C(C)=C/[C@H](C)[C@H]1O | > 200 | > 200 | > 200 | 7.52 | < 4.30 | – | – | – | Not Active | Not Active | Not Active | – | – | – | –
COc1c(O)cc2c3c1C[C@@H](C)C[C@H](OC)[C@H](O3)[C@@H](C)/C=C(\C)[C@H](OC(N)=O)[C@@H](OC)/C=C/C=C(\C)C(=O)N2 | > 200 | > 200 | > 200 | – | 4.43 | 4.37 | 4.44 | 4.46 | – | – | – | Not Active | – | – | –
CC[C@H]1/C=C/[C@@H]([C@H](C)O)OC(=O)/C(C)=C/CC(=O)Nc2cc(O)cc3c2O[C@@]2(CC1)CC(=O)[C@@H](C)[C@H]3O2 | – | – | – | – | – | – | – | – | – | – | – | – | 510 | 160 | 4.72
COc1c(O)cc2c3c1C[C@@H](C)C[C@H](OC)[C@H](O3)[C@@H](C)/C=C(\C)[C@H](OC(N)=O)[C@@H](OC)CC/C=C(\C)C(=O)N2 | > 200 | > 200 | > 200 | – | 4.19 | 4.37 | 4.15 | 4.07 | – | – | – | Not Active | – | – | –
COc1c(O)cc2c3c1C[C@@H](C)C[C@H](OC)[C@H](O3)[C@@H](C)/C=C(\C)[C@H](OC(N)=O)[C@@H](OC)C[C@@H](O)/C=C(\C)C(=O)N2 | > 200 | 100 (≈ 178 µM) | 50 (≈ 88.9 µM) | 4.02 | < 4.00 | < 4.00 | < 4.00 | – | – | – | Not Active | – | – | – | –
COc1c(O)cc2c3c1C[C@@H](C)C[C@H](OC)[C@H](O3)[C@@H](C)/C=C(\C)[C@H](OC(N)=O)[C@@H](OC)/C=C\C=C(\C)C(=O)N2 | > 200 | > 200 | > 200 | – | 4.89 | 4.74 | 4.46 | 4.32 | – | – | – | Not Active | – | – | –
COc1c(O)cc2c3c1C[C@@H](C)C[C@H](OC)[C@H](O3)[C@@H](C)/C=C(\C)[C@H](OC(N)=O)[C@@H](OC)/C=C\C=C(/C)C(=O)N2 | > 200 | > 200 | > 200 | – | 4.80 | 4.85 | 4.70 | 4.57 | – | – | – | Not Active | – | – | –
COC1=C2C[C@@H](C)C[C@H](OC)[C@H](O)[C@@H](C)/C=C(\C)[C@H](OC(N)=O)[C@@H](OC)/C=C\C=C(/C)C(=O)NC(=CC1=O)C2=O [GELDANAMYCIN] | > 200 | > 200 | > 200 | – | – | – | – | – | – | – | – | – | – | – | –
CO[C@H]1/C=C\C=C(/C)C(=O)NC2=CC(=O)C=C(C2=O)[C@H](OC)[C@@H](C)C[C@H](OC)[C@H](O)[C@@H](C)/C=C(\C)[C@@H]1OC(N)=O [HERBIMYCIN C] | > 200 | 100 (≈ 178 µM) | 50 (≈ 89.2 µM) | 4.51 | 4.72 | 4.70 | 4.70 | 4.25 | – | – | – | – | – | – | –
CC(=O)O[C@H]1C(=O)[C@@]2(C)[C@H]([C@H](OC(=O)c3ccccc3)[C@]3(O)C[C@H](OC(=O)[C@H](O)[C@@H](NC(=O)c4ccccc4)c4ccccc4)C(C)=C1C3(C)C)[C@]1(OC(C)=O)CO[C@@H]1C[C@@H]2O [PACLITAXEL] | – | – | – | – | – | – | – | – | – | – | – | Not Active | – | – | –
COc1c(O)cc2cc1C[C@@H](C)C[C@H](OC)[C@H](O)[C@@H](C)/C=C(\C)[C@H](OC(N)=O)[C@@H](OC)CC/C=C(\C)C(=O)N2 [REBLASTATIN] | > 200 | > 200 | > 200 | 8.30 | 6.15 | – | – | – | – | Not Active | Not Active | – | – | – | –

— ChEMBL document CHEMBL4619738, “Ansamycin derivatives from the marine-derived Streptomyces sp. SCSGAA 0027 and their cytotoxic and antiviral activities” (Bioorg Med Chem Lett, 2020)
